# Experimental data: patent US9328369B2, “Process for production of useful substance, and surfactant for use in the process” (priority 2009, dated 2016)
# What was measured:
# Escherichia coli(δ) = assay: Production by secretion in microbial culture system, cellulase expressing strain (Table 5); format: cell-based; parameters: key to Turbidity: (measured turbidity of diluted culture − blank) × dilution rate; settings: for Dried cell density: obtained from turbidity; for Quantitative value of produced recombinant protein: SDS-PAGE
# Protocol: A bglC gene of Bacillus licheniformis was amplified by the PCR method using primers 9 and 10 (Table 4). After being treated with restriction enzymes NcoI and BamHI, a PCR amplified fragment was bound to an NcoI restriction enzyme site and a BamHI restriction enzyme site of a pET-22b plasmid (product of Novagen). Then, the plasmid was transformed into a BL21 (DE3) Escherichia coli strain (product of Novagen) to form Escherichia coli […] that expresses cellulase.
# Overnight cultures (1 ml) of Escherichia coli (δ) obtained in Production Example 4 and Escherichia coli (ε) obtained in Production Example 5 were respectively prepared as Comparative Example 2 and Comparative Example 4. An amount of 0.5 ml of each was inoculated in 5 ml of an LB culture solution (containing 100 mg/L of ampicillin) and was shake-cultured at 30° C. for 3 hours. In this manner, pre-culture solutions were prepared. The pre-culture solutions were each inoculated in 50 mL of a culture solution (1.2 g of yeast extract (Nihon Pharmaceutical Co., Ltd.), 0.6 g of polypeptone (Nihon Pharmaceutical Co., Ltd.), 0.47 g of dipotassium phosphate, 0.11 g of monopotassium phosphate, 0.35 g of ammonium sulfate, 0.66 g of disodium phosphate 12-hydrate, 0.02 g of sodium citrate dihydrate, 0.2 g of glycerol, 1.5 g of lactalbumin hydrolysate, 0.3 g of a defoaming agent (Shin-Etsu Chemical Co., Ltd., “KM-70”), 1 mM magnesium sulfate, trace metal solution (18.9 μg of calcium chloride, 500 μg of iron chloride (III), 9.0 μg of zinc sulfate heptahydrate, 5.1 μg of copper sulfate, 6.7 μg of manganese chloride tetrahydrate, 4.9 μg of cobalt chloride, 200 μg of ethylene-diamine-tetraacetic acid tetrasodium salt), 100 mg/L ampicillin). Culturing was initiated with use of a microbial culture system (ABLE Corporation, product name “BioJr. 8”), while the pH value and the temperature were maintained at 6.8 and 30° C. After the culturing was initiated, 0.15 mL of 1M IPTG was added. After 14 hours from the initiation of culturing, instillation of a glycerin/protein solution (50% of glycerin, 50 g/L of lactalbumin hydrolysate, a 33 g/L defoaming agent (Shin-Etsu Chemical Co., Ltd., “KM-70”), 100 mg/L ampicillin) was started. The culturing was terminated after 48 hours from the initiation and the culture solution was recovered. The whole protein in the culture solution was analyzed by SDS-PAGE. Based on the obtained amount of the protein band, the recombinant protein was quantified.
# The dried cell density at the termination of the culturing was determined by the following processes (1) to (5):
# (§1) The dried cell density was determined by applying the measuring results in the process (5) and the process (1) and the volume (L) of the culture solution used in the process (2) to the following formula: Dried cell density (g/L)=([measuring result in process (5)]−[measuring result in process (1)])/0.1.
# Performance of this processes for several times clarified the proportional relationship between the turbidity of the culture solution and the dried cell density. Therefore, the dried cell density was obtained from the measured turbidity in each of Comparative Examples 2 to 4 and Examples 2 to 14.
# The turbidity of a culture solution that is same as the culture solution used in the measurement of the dried cell density was measured using a turbidimeter (Shimadzu Corporation, UV-1700) and 1 ml of quarts cell.
# For measurement, the culture solution was diluted in saline to have an appropriate absorbance. The absorbance of the same culture solution (but not containing bacteria) diluted at the same dilution as above was set as a blank. The turbidity of the culture solution was calculated by using the following formula: Turbidity of culture solution=[(measured turbidity of diluted culture solution)−(measured turbidity of blank)]×dilution rate.
# The dried cell density and the turbidity of the culture solution were plotted to construct a graph in FIG. 3. […]
# Shewanella putrefaciens = assay: Production by secretion in microbial culture system, Shewanella (Table 6); format: cell-based; settings: surfactant 1 wt %; for Dried cell density: after 48 hours culturing; for Quantitative value of produced recombinant protein: supernatant, protein band around 45 kDa, SDS-PAGE
# Protocol: An overnight culture solution (10 ml) of Shewanella putrefaciens was prepared and inoculated in 1 L of a culture solution (10 g of polypeptone (Nihon Pharmaceutical Co., Ltd.), 2 g of yeast extract (Nihon Pharmaceutical Co., Ltd.), 0.5 g of magnesium sulfate heptahydrate, 750 mL of Seawater (Daigo)) and was shake-cultured at 30° C. for 5 hours. In this manner a pre-culture solution was prepared. The pre-culture solution was inoculated in 10 L of a culture solution (200 g of polypeptone (Nihon Pharmaceutical Co., Ltd.), 40 g of yeast extract (Nihon Pharmaceutical Co., Ltd.), 10 g of magnesium sulfate heptahydrate, 7.5 L of Seawater (Daigo)). Culturing thereof was initiated with use of a microbial culture system (ABLE Corporation), while the pH value and the temperature were maintained at 7.3 and 30° C. After 48 hours from the initiation of culturing, the culture solution was recovered and centrifuged. The whole protein of the obtained supernatant fragment was analyzed by SDS-PAGE and the protein band around 45 kDa was quantified.
# The dried cell density when the culturing is terminated was determined by the following processes (1) to (5):
# as §1, with “assigning” for “applying”
# The same processes as in Comparative Example 5 were carried out except that, after culturing in the microbial culture system was initiated, the surfactant A-14 was added to the culture solution in an amount of 1% by weight on the basis of the weight of the culture solution.
# The same processes as in Comparative Example 5 were carried out except that, after culturing in the microbial culture system was initiated, the surfactant A-7 was added to the culture solution in an amount of 1% by weight on the basis of the weight of the culture solution.
# [1] = Comparative Example 3, surfactant 1 wt %, added earlier than in Example 2
# [2] = Examples 2-11, surfactant 1 wt %, at termination of culturing
# [3] = Examples 2-11, surfactant 1 wt %, culturing terminated after 48 hours
# [4] = Example 13, surfactant 0.1 wt %
Compound,Turbidity (Escherichia coli(δ); [1]),Dried cell density (Escherichia coli(δ); [1]),"Quantitative value of produced recombinant protein (Escherichia coli(δ); Comparative Example 3, surfactant 1 wt %, added earlier than in Example 2, whole protein in culture solution)",Dried cell density (Escherichia coli(δ); [2]),Turbidity (Escherichia coli(δ); [3]),"Quantitative value of produced recombinant protein (Escherichia coli(δ); Examples 2-11, surfactant 1 wt %, supernatant of culture solution)",Dried cell density (Shewanella putrefaciens),Quantitative value of produced recombinant protein (Shewanella putrefaciens),Turbidity (Escherichia coli(δ); [4]),Dried cell density (Escherichia coli(δ); [4]),"Turbidity (Escherichia coli(δ); Example 14, surfactant 5 wt %)","Dried cell density (Escherichia coli(δ); Example 14, surfactant 5 wt %)"
"CCCCCCCCCCCCCCCC[N+](C)(C)C.[Cl-] [A-14, Cetyl trimethyl ammonium chloride]",1.07,0.3 g/L,<0.05 g/L,1.52 g/L,5.43,0.06 g/L,0.23 g/L,<0.01 g/L,,,,
Cured palm oil fatty acid amidopropyl dimethyl aminoacetate betaine [A-6],,,,19.7 g/L,70.3,,,,75.2,21.1 g/L,52.1,14.6 g/L
Polyoxyethylene(3 mol)tridecyl ether sodium acetate [A-1],,,,12.1 g/L,43.2,,,,,,,
Sodium cocaminopropionate [A-7],,,,22.1 g/L,78.9,,2.32 g/L,0.04 g/L,,,,
